According to ChEMBL document CHEMBL1201862, “PubChem BioAssay data set” (2004):
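Following 48 hours of exposure in 96-well plates, responses at five concentrations were used to interpolate endpoints linearly. GI50: concentration for 50% inhibition of growth.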 Active and inactive are the calls of the source. Cut-off read from the data, not from the text of the source: active = GI50 up to about 1.1 µM and inactive = higher.

Key:
Test in all cases: DTP human tumour cell line panel, 48 h
786-0 = system: 786-0
A549 = system: A549
EKVX = system: EKVX
HCT-116 = system: HCT-116
Hs-578T = system: Hs-578T
K562 = system: K562
KM12 = system: KM12
MDA-MB-435 = system: MDA-MB-435
Malme-3M = system: Malme-3M
NCI-H460 = system: NCI-H460
RPMI-8226 = system: RPMI-8226
SF-268 = system: SF-268
SF-295 = system: SF-295
SF-539 = system: SF-539
SN12C = system: SN12C
SNB-19 = system: SNB-19
T47D = system: T47D
UACC-62 = system: UACC-62
UO-31 = system: UO-31
OVCAR-4 = system: OVCAR-4

| SMILES | GI50 (786-0) | GI50 (A549) | GI50 (EKVX) | GI50 (HCT-116) | GI50 (Hs-578T) | GI50 (K562) | GI50 (KM12) | GI50 (MDA-MB-435) | GI50 (Malme-3M) | GI50 (NCI-H460) | GI50 (RPMI-8226) | GI50 (SF-268) | GI50 (SF-295) | GI50 (SF-539) | GI50 (SN12C) | GI50 (SNB-19) | GI50 (T47D) | GI50 (UACC-62) | GI50 (UO-31) | GI50 (OVCAR-4) |
| --- | --- | --- | --- | --- | --- | --- | --- | --- | --- | --- | --- | --- | --- | --- | --- | --- | --- | --- | --- | --- |
| O=C(/C=C/c1ccc2c(c1)OCO2)CC(=O)C(=O)c1c[nH]c2ccccc12 | 41.9 µM (inactive) | 35.3 µM (inactive) | 38.5 µM (inactive) | 31.8 µM (inactive) | 29 µM (inactive) | 24.2 µM (inactive) | 33.4 µM (inactive) | 24.3 µM (inactive) | > 100 µM (inactive) | 33.7 µM (inactive) | 35.4 µM (inactive) | 37.2 µM (inactive) | 61.8 µM (inactive) | 32.4 µM (inactive) | 45.8 µM (inactive) | 46.2 µM (inactive) | 29.4 µM (inactive) | 44.2 µM (inactive) | 24.2 µM (inactive) |  |
| CCOC(=O)C(Cl)(NC(=O)c1ccc(F)cc1)C(F)(F)F (stereo not given) | > 100 µM (inactive) | > 100 µM (inactive) | > 100 µM (inactive) | > 100 µM (inactive) | > 100 µM (inactive) | > 100 µM (inactive) | 39.2 µM (inactive) | > 100 µM (inactive) | > 100 µM (inactive) | > 100 µM (inactive) | > 100 µM (inactive) | > 100 µM (inactive) | > 100 µM (inactive) | > 100 µM (inactive) | > 100 µM (inactive) | > 100 µM (inactive) | > 100 µM (inactive) |  | > 100 µM (inactive) | > 100 µM (inactive) |
| C/C=C1/CN2CCc3c([nH]c4ccccc34)[C@@H]2C[C@@H]1Cc1nccc2c1[nH]c1cc(O)ccc12 | 1.61 µM (inactive) | 2.23 µM (inactive) | 2.07 µM (inactive) | 1.67 µM (inactive) | 2.23 µM (inactive) | 2.13 µM (inactive) | 1.95 µM (inactive) | 1.9 µM (inactive) |  | 16.5 µM (inactive) |  | 1.77 µM (inactive) | 1.9 µM (inactive) | 2.02 µM (inactive) | 1.66 µM (inactive) | 2.26 µM (inactive) | 2.14 µM (inactive) | 2.07 µM (inactive) | 1.99 µM (inactive) | 1.57 µM (inactive) |
| CCN1CC2(C)CCC(OC)C34C5CC6CCC(O)(C5C(=O)O6)C(C(O)C23)C14 (stereo not given) | > 100 µM (inactive) | > 100 µM (inactive) | > 100 µM (inactive) | > 100 µM (inactive) | > 100 µM (inactive) | > 100 µM (inactive) | > 100 µM (inactive) | > 100 µM (inactive) | > 100 µM (inactive) | > 100 µM (inactive) | > 100 µM (inactive) | > 100 µM (inactive) | > 100 µM (inactive) | > 100 µM (inactive) |  | > 100 µM (inactive) | > 100 µM (inactive) | > 100 µM (inactive) | > 100 µM (inactive) | > 100 µM (inactive) |
| O=C(Nc1ccc(Cl)cc1)c1cc(S(=O)(=O)Nc2nnc3c(Cl)cc(C(F)(F)F)cn23)c(S)cc1Cl | > 100 µM (inactive) | > 100 µM (inactive) | > 100 µM (inactive) | 68.1 µM (inactive) | 46.5 µM (inactive) | > 100 µM (inactive) | 50.4 µM (inactive) | 49.9 µM (inactive) | > 100 µM (inactive) | 43.1 µM (inactive) | > 100 µM (inactive) | 70 µM (inactive) | 44.6 µM (inactive) | > 100 µM (inactive) | 84.5 µM (inactive) | 52.2 µM (inactive) | > 100 µM (inactive) |  | > 100 µM (inactive) | > 100 µM (inactive) |
| CCCn1cnc2c(/N=N/O)ncnc21 | > 100 µM (inactive) |  | > 100 µM (inactive) | > 100 µM (inactive) | > 100 µM (inactive) | > 100 µM (inactive) | > 100 µM (inactive) | > 100 µM (inactive) | > 100 µM (inactive) | > 100 µM (inactive) | > 100 µM (inactive) | > 100 µM (inactive) |  | > 100 µM (inactive) |  | > 100 µM (inactive) | > 100 µM (inactive) | > 100 µM (inactive) | > 100 µM (inactive) | > 100 µM (inactive) |
| CC1(C)[C@@H]2C[C@H]1C(Cc1ccc(C[C@H]3c4cc(-c5ccccn5)ncc4[C@H]4C[C@@H]3C4(C)C)cc1)c1cc(-c3ccccn3)ncc12 (stereo not given in full) | 1.41 µM (inactive) | 0.807 µM (active) | 1.32 µM (inactive) | 0.75 µM (active) | > 100 µM (inactive) | 0.649 µM (active) | 2.18 µM (inactive) | 1.13 µM (inactive) | 4.53 µM (inactive) | 0.916 µM (active) | 3.03 µM (inactive) | 0.865 µM (active) | 1.22 µM (inactive) | 1.22 µM (inactive) | 0.902 µM (active) | 3.32 µM (inactive) | 2.52 µM (inactive) | 0.67 µM (active) | 0.931 µM (active) |  |
